Assay results from patent US9370506B2, “Modulators of aldehyde dehydrogenase and methods of use thereof” (The Board of Trustees of the Leland Stanford Junior …, priority 2008, dated 2016).
Positions count from the first letter of the chain named.

Key:
Format in all cases: biochemical
ALDH2 = biological target: T1, ALDH2 (Homo sapiens, UniProt P05091, E504K); experiment: Screening for ALDH2 agonists (NAD+ to NADH, optionally diaphorase/resazurin-coupled); conditions: increase of ALDH2 activity; 10 mM acetaldehyde as substrate
T1 sequence (P05091 18-517 E504K): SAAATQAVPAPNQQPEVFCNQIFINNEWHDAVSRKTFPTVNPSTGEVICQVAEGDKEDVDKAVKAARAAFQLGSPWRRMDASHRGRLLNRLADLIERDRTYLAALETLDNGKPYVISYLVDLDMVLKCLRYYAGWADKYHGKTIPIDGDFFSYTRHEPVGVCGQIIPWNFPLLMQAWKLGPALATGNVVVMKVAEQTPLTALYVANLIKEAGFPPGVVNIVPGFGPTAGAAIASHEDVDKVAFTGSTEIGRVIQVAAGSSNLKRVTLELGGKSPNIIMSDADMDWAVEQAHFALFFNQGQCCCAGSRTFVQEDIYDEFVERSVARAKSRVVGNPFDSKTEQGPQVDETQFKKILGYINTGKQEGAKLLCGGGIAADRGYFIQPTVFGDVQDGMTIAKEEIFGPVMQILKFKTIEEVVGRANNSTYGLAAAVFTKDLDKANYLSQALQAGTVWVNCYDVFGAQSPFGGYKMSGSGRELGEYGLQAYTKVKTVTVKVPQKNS
Experimental: Compounds were screened using a method as depicted schematically in FIG. 4. Essentially, the reaction is carried out at 25° C. in 0.1 NaPPi buffer, pH 9.5, 2.4 mM NAD^+ and 10 mM acetaldehyde as the substrate. Enzymatic activity is measured by a reductive reaction of NAD^+ to NADH at 340 nm. Alternatively, the production of NADH can be coupled with another enzymatic reaction that consumes NADH and that provides for a detectable signal. An example of such an enzymatic reaction is a diaphorase-based reaction, which reduces resazurin to its […] fluorescent compound resorufin.
For example, a 120 μl reaction mixture for ALDH enzymatic activity comprises the following components:
43 μl 150 mM sodium pyrophosphate (NaPPi) buffer, pH 9.0;
15 μl 80 mM acetaldehyde;
1 μl of resazurin (0.2 mg/ml in H2O);
1 μl of diaphorase (1 unit, e.g., from Clostridium kluyveri);
2 μl of variant ALDH2 (e.g., 2 μl of variant ALDH2 at (0.5-2 μg/μl); and
28 μl of a solution comprising an agent to be tested, which agent has been resuspended in an appropriate solvent (e.g., an aqueous solution, DMSO, and the like).
Approximately 65,000 compounds were screened. A number of compounds were identified that increase the activity of ALDH2.

[1] = biological target: T2, E488K ALDH1 mutant recombinant protein (Homo sapiens, UniProt P00352, E488K); experiment: High throughput screening against E488K ALDH1 mutant; conditions: octylaldehyde and phenylacetaldehdye as substrates
T2 sequence (P00352 1-501 E488K): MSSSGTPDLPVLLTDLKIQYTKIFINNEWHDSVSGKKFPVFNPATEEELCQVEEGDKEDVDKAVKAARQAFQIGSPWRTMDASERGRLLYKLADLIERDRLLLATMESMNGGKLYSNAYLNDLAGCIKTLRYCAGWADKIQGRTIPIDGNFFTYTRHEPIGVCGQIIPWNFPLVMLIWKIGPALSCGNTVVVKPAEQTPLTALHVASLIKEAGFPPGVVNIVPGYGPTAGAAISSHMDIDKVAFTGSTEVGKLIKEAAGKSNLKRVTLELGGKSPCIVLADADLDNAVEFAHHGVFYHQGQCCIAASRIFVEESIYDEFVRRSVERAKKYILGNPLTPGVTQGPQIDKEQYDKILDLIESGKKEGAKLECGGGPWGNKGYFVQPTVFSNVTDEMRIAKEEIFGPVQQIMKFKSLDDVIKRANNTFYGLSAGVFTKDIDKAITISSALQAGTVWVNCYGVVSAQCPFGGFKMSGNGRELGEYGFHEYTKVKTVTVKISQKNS
Excerpt: The screening assays used octylaldehyde (an example of longer chain aliphatic aldehyde) and phenylacetaldehdye (an example of aromatic aldehyde), instead of acetaldehyde.

ALDH2 isozyme = biological target: T3, ALDH2 isozyme (Homo sapiens, UniProt P05091); experiment: ALDH2 enzymatic activity, spectrophotometric NAD+ to NADH assay; conditions: acetaldehyde as substrate
T3 construct: made in house; host or cells: BL21 E. coli
T3 sequence (P05091 18-517): T1 sequence (P05091 18-517 E504K) with K487E
Experimental: Reagents for plant-derived compounds safrole, isosafrole, piperine, sesamin, capsaicin were purchased from Sigma-Aldrich Chemicals and dihydromethysticin was purchased from AvaChem. Scientific. Piperine related compounds, Alda-101 to Alda-112, were synthesized by standard organic chemistry. All testing compounds were dissolved in dimethyl-sulfoxide (DMSO) to obtain a stock solution of 20 mM. Different recombinant ALDH isozymes with a His-epitope tag at the N-terminus were constructed, cloned and expressed in BL21 E. coli host cells according published methods (Chen et al., 2008 Science 321:1493). The bacteria were subjected to 0.5 mM IPTG induction for protein expression at 30° C. Purification of the recombinant proteins by affinity nickel columns were carried out using a standard protocol according to manufacturer's instructions (Novagen, Wis., USA).
ALDH enzymatic activity was determined spectrophotometrically using purified recombinant protein (15 ug) in the reductive reaction of NAD^+ to NADH at λ340 nm (Rex et al., 1985, Alcohol Clin Exp Res 9: 147). All the assays in the presence of absence of a testing compound were carried out at 25° C. in […] pyrophosphate buffer, pH=9.5, 2.4 mM NAD+ and 10 mM acetaldehyde or phenylacetaldehyde as a substrate.

SMILES | EC50 (ALDH2) | further results
COc1c(C(=O)NCc2ccc3c(c2)OCO3)ccc2ccccc12 [Alda-52, 1-methoxy-naphthalene-2-carboxylic acid (benzo[1,3]dioxol-5-ylmethyl)-amide] | 3 µM | 
Cc1ccc(-n2ncc3c(N(CCO)Cc4ccccc4)ncnc32)cc1Cl [Alda-67, 2-{benzyl-[1-(3-chloro-4-methyl-phenyl)-1H-pyrazolo[3,4-d]pyrimidin-4-yl]-amino}-ethanol] | 3.42 µM | 
O=C(Cn1c2ccccc2c2cn[nH]c(=O)c21)NCc1ccc2c(c1)OCO2 [Alda-72, N-benzo[1,3]dioxol-5-ylmethyl-2-(1-oxo-1,2-dihydro-2,3,9-triaza-fluoren-9-yl)-acetamide] | 2.92 µM | 
Cc1ccc(-n2cc(-c3ccccc3)c3c(N4CCN(CCO)CC4)ncnc32)cc1Cl [Alda-73, 2-{4-[7-(3-chloro-4-methyl-phenyl)-5-phenyl-7H-pyrrolo[2,3-d]pyrimidin-4-yl]-piperazin-1-yl}-ethanol] | 3.55 µM | 
CCOC(=O)c1cc(-c2ccc(C)cc2)n(CCC(=O)N2CCN(c3ccccn3)CC2)c1C [Alda-56, 2-methyl-1-[3-oxo-3-(4-pyridin-2-yl-piperazin-1-yl)-propyl]-5-p-tolyl-1H-pyrrole-3-carboxylic acid ethyl ester] | 3.65 µM | 
Cc1cc(C)cc(NC(=O)CSC2=Nc3ccccc3C3=NC(C(C)C)C(=O)N23)c1 (centres unmarked) [Alda-65, N-(3,5-dimethyl-phenyl)-2-(2-isopropyl-3-oxo-2,3-dihydro-imidazo[1,2-c]quinazolin-5-ylsulfanyl)-acetamide] | 8.41 µM | 
Cc1ccc(N2CC(c3nc(-c4ccncc4)no3)CC2=O)cc1F (centres unmarked) [Alda-70, 1-(3-fluoro-4-methyl-phenyl)-4-(3-pyridin-4-yl-[1,2,4]oxadiazol-5-yl)-pyrrolidin-2-one] | 5.57 µM | 
NC(=O)c1cc(S(=O)(=O)NCc2ccc3c(c2)OCO3)cs1 [Alda-59, 4-[(benzo[1,3]dioxol-5-ylmethyl)-sulfamoyl]-thiophene-2-carboxylic acid amide] | 4.6 µM | 
Cc1ccc(CNC(=O)Cn2c3ccccc3c3cn[nH]c(=O)c32)cc1 [Alda-71, N-(4-methyl-benzyl)-2-(1-oxo-1,2-dihydro-2,3,9-triaza-fluoren-9-yl)-acetamide] | 16.6 µM | 
C=CCn1c(C(C)NC(=O)c2ccccc2)nc2ccccc21 (centres unmarked) [Alda-81, N-[1-(1-allyl-1H-benzoimidazol-2-yl)-ethyl]-benzamide] |  | identified as ALDH1 activator [1]: ALDH1 activators
O=C(C1COc2cc(S(=O)(=O)NCc3ccccc3Cl)ccc2O1)N1CCCCCC1 (centres unmarked) [Alda-64, 2-(azepane-1-carbonyl)-N-(2-chloro-benzyl)-2,3-dihydro-benzo[1,4]dioxine-6-sulfonamide] | 2.2 µM | 
CCCCC(=O)Nc1cc(-c2ccc(C)cc2)no1 [Alda-57, pentanoic acid (3-p-tolyl-isoxazol-5-yl)-amide] | 1.4 µM | 
Cc1ccc(CNC(=O)C(C)SC2=Nc3ccccc3C3=NC(C(C)C)C(=O)N23)cc1 (centres unmarked) [Alda-66, 2-(2-isopropyl-3-oxo-2,3-dihydro-imidazo[1,2-c]quinazolin-5-ylsulfanyl)-N-(4-methyl-benzyl)-propionamide] | 2.66 µM | 
O=C(NCc1ccc2c(c1)OCO2)c1cc(-n2cnnc2)ccc1Cl [Alda-53, N-benzo[1,3]dioxol-5-ylmethyl-2-chloro-5-[1,2,4]triazol-4-yl-benzamide] | 1.09 µM | 
COc1ccc(C2C(C#N)=C(C)NC3=C2C(=O)CC(c2ccc(Cl)cc2)C3)cc1 (centres unmarked) [Alda-83, 7-(4-chloro-phenyl)-4-(4-methoxy-phenyl)-2-methyl-5-oxo-1,4,5,6,7,8-hexahydro-quinoline-3-carbonitrile] |  | identified as ALDH1 activator [1]: ALDH1 activators
C=CCc1ccc2c(c1)OCO2 [safrole, 5-(2-propenyl)-1,3-benzodioxole] |  | effect on enzymatic activity of ALDH2 isozyme (ALDH2 isozyme; 500 uM & 1000 uM, FIG. 17): Inhibitory effect; effect on enzymatic activity of ALDH2 isozyme, 15-minute kinetic measurements (ALDH2 isozyme; 1000 uM, FIG. 18): inhibitory effect
Cc1ccc(CNS(=O)(=O)c2cc(-c3cc(C)no3)ccc2C)cc1 [Alda-60, 2-methyl-N-(4-methyl-benzyl)-5-(3-methyl-isoxazol-5-yl)-benzene sulfonamide] | 4.96 µM | 
COc1cccc(CNc2nccn(-c3ccc(C)c(C)c3)c2=O)c1 [Alda-62, 1-(3,4-dimethyl-phenyl)-3-(3-methoxy-benzylamino)-1H-pyrazin-2-one] | 14.7 µM | 
COc1ccccc1CNc1nccn(-c2ccc3c(c2)OCCO3)c1=O [Alda-63, 1-(2,3-dihydro-benzo[1,4]dioxin-6-yl)-3-(2-methoxy-benzylamino)-1H-pyrazin-2-one] | 12.4 µM | 
CCn1cnc2c(=O)oc3ccc(S(=O)(=O)NCc4ccc5c(c4)OCO5)cc3c21 [Alda-54, 1-ethyl-4-oxo-1,4-dihydro-chromeno[3,4-d]imidazole-8-sulfonic acid (benzo[1,3]dioxol-5-ylmethyl)-amide] | 1.72 µM | 
Cc1ccc(CNS(=O)(=O)c2cc(-c3onc(C)c3C)ccc2C)cc1 [Alda-61, 5-(3,4-dimethyl-isoxazol-5-yl)-2-methyl-N-(4-methyl-benzyl)-benzene sulfonamide] | 6.44 µM | 
Cc1ccc(N2CC(c3nc(-c4cccnc4)no3)CC2=O)cc1Cl (centres unmarked) [Alda-69, 1-(3-chloro-4-methyl-phenyl)-4-(3-pyridin-3-yl-[1,2,4]oxadiazol-5-yl)-pyrrolidin-2-one] | 8.9 µM | 
